Results on 24 molecules are retold here after US20240150362A1, “Substituted Pyrrolotriazines” (Molecure S.A., priority 2022, published 2024).

The structures appear in SMILES notation. Counter-ions that a name gives are not always drawn.

In the test the target is T1, full-length USP7 (Homo sapiens, UniProt Q93009).
T1 construct: A 45 μl reaction volume containing full-length USP7 (0.5-1.0 nM)
T1 sequence (Q93009 whole entry): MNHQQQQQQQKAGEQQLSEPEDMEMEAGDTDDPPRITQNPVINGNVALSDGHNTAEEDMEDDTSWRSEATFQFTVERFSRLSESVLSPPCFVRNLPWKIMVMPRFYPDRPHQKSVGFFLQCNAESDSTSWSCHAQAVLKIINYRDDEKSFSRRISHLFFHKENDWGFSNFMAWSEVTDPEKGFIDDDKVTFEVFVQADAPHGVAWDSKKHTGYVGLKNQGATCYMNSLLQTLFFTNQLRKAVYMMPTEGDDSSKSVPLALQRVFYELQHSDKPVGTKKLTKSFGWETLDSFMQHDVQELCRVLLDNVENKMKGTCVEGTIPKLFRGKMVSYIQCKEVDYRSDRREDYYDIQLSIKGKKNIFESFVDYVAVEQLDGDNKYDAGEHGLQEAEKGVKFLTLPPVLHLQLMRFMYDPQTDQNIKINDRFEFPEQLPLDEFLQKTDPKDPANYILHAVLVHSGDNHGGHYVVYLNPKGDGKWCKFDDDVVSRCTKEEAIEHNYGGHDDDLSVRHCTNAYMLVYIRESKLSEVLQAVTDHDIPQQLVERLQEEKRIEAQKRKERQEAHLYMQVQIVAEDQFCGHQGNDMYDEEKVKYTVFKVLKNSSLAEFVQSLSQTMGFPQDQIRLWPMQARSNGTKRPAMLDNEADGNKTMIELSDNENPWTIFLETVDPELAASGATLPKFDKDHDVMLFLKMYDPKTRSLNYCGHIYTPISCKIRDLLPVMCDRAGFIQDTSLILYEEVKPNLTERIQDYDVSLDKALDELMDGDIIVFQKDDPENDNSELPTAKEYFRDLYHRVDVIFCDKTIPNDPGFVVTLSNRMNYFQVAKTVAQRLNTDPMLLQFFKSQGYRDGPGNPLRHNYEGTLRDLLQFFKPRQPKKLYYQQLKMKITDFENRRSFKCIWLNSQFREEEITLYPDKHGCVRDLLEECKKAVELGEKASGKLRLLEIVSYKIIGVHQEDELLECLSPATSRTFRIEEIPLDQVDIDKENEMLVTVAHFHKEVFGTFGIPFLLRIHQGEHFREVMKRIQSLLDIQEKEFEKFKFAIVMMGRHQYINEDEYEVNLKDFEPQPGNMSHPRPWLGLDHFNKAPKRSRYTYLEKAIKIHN
Nature of the test: Enzymatic assay to determine IC50 of USP7 inhibitors (Ubiquitin-Rhodamine 110 cleavage). Type of test: biochemical. The following applies: full-length USP7 0.5-1.0 nM, 0.5 μM Ubiquitin-Rhodamine 110, 30-60 min at 25° C. Here is the method:
Enzymatic Assay to Determine IC50 of USP7 Inhibitors
The IC50 is the concentration of an inhibitor where the measured enzyme activity is reduced by half. In the case of USP7 deubiquitinase, the IC50 of an USP7 inhibitor is the molar concentration of the compound that inhibits 50% of the activity observed in a USP7-mediated-ubiquitin-rhodamine cleavage assay. For the inhibitors disclosed herein, their potency was measured using the following method.
A 45 μl reaction volume containing full-length USP7 (0.5-1.0 nM) in 50 mM HEPES pH 7.5, 150 mM NaCl, 2 mM DTT, 1 mg/ml BSA and 0.05% Tween20 was assembled in wells of 96 well half area black flat bottom plates. Test compounds were first dissolved to 30 mM stocks in DMSO and subsequently introduced to enzyme 15 min after USP7 incubation with DTT at room temperature. The enzymatic reaction was started by adding 0.5 μM Ubiquitin-Rhodamine 110 (final concentration) and allowed to proceed for 30-60 min at 25° C., 250 RPM shaking before Rhodamine fluorescence (485 nm excitation/535 nm emission) was measured using Tecan Spark M10 plate reader. The IC50 values were determined by data fitting to variable slope model four-parameter dose-response curve using GraphPad 7.05.
In turn, `C[C@H]1CNCC(Cc2c(Cl)cc(Cl)cc2-c2ncnn3cc(Cn4c(=O)ccn(C)c4=O)cc23)O1` (single isomer, unassigned) [Example 126, hydrochloride] came in with an IC50 of less than 500 nM.
The result for `CC1(C)C2C(=O)N(Cc3cc4c(-c5cc([N+](=O)[O-])cc6ccn(C[C@@H]7CNCCO7)c56)ncnn4c3)C(=O)C21` (stereo partly drawn) [Example 32, 6,6-dimethyl-3-((4-(1-(((S)-morpholin-2-yl)methyl)-5-nitro-1H-indol-7-yl)pyrrolo[2,1-f][1,2,4]triazin-6-yl)methyl)-3-azabicyclo[3.1.0]hexane-2,4-dione 2,2,2-trifluoroacetate] reads less than 500 nM.
`Cc1cc(Cl)cc(-c2ncnn3cc(CN4C(=O)C5C(C4=O)C5(C)C)cc23)c1CC1CNCC(C)(C)O1` (racemic) [Example 50, 3-((4-(5-chloro-2-((6,6-dimethylmorpholin-2-yl)methyl)-3-methylphenyl)pyrrolo[2,1-f][1,2,4]triazin-6-yl)methyl)-6,6-dimethyl-3-azabicyclo[3.1.0]hexane-2,4-dione hydrochloride] came in with a half-inhibitory concentration (IC50) of less than 500 nM.
`Cc1cc(Cl)cc(-c2ncnn3cc(CN4C(=O)C5C(C4=O)C5(C)C)cc23)c1C[C@@H]1CNCCO1` (stereo partly drawn) [Example 2, 3-((4-(5-chloro-3-methyl-2-(((R)-morpholin-2-yl)methyl)phenyl)pyrrolo[2,1-f][1,2,4]triazin-6-yl)methyl)-6,6-dimethyl-3-azabicyclo[3.1.0]hexane-2,4-dione hydrochloride]: the IC50 is less than 500 nM.
`Cl.[2H]C([2H])([2H])n1ccc(=O)n(Cc2cc3c(-c4cc(Cl)cc5ccn(CC6(F)CCNCC6)c45)ncnn3c2)c1=O` [Example 131, 3-((4-(5-chloro-1-((4-fluoropiperidin-4-yl)methyl)-1H-indol-7-yl)pyrrolo[2,1-f][1,2,4]triazin-6-yl)methyl)-1-(methyl-d3)pyrimidine-2,4(1H,3H)-dione hydrochloride]: the IC50 is less than 500 nM.
The figure for `Cc1cc(Cl)cc(-c2ncnn3cc(CN4C(=O)C5C(C4=O)C5(C)C)cc23)c1O[C@H]1CCCNC1` (stereo partly drawn) [Example 1, 3-((4-(5-chloro-3-methyl-2-(((S)-piperidin-3-yl)oxy)phenyl)pyrrolo[2,1-f][1,2,4]triazin-6-yl)methyl)-6,6-dimethyl-3-azabicyclo[3.1.0]hexane-2,4-dione hydrochloride] is less than 500 nM; for `Cc1cc(Cl)cc(-c2ncnn3cc(Cn4c(=O)ccn(CC(F)F)c4=O)cc23)c1CC1CNC[C@H](C)O1` (stereo partly drawn) [Example 95, 3-((4-(5-chloro-3-methyl-2-(((6S)-6-methylmorpholin-2-yl)methyl)phenyl)pyrrolo[2,1-f][1,2,4]triazin-6-yl)methyl)-1-(2,2-difluoroethyl)pyrimidine-2,4(1H,3H)-dione hydrochloride] it is less than 500 nM; for `Cc1cc(Cl)cc(-c2ncnn3cc(CN4C(=O)C5C(C4=O)C5(C)C)cc23)c1O[C@@H]1CNC[C@@H]1F` (stereo partly drawn) [Example 14, 3-((4-(5-chloro-2-(((3R,4S)-4-fluoropyrrolidin-3-yl)oxy)-3-methylphenyl)pyrrolo[2,1-f][1,2,4]triazin-6-yl)methyl)-6,6-dimethyl-3-azabicyclo[3.1.0]hexane-2,4-dione hydrochloride] it is less than 500 nM.
The figure for `Cc1cc(Cl)cc(-c2ncnn3cc(CN4C(=O)C5C(C4=O)C5(C)C)cc23)c1CC1CNCC2(CC2)O1` (racemic) [Example 46, 3-((4-(2-((4-oxa-7-azaspiro[2.5]octan-5-yl)methyl)-5-chloro-3-methylphenyl)pyrrolo[2,1-f][1,2,4]triazin-6-yl)methyl)-6,6-dimethyl-3-azabicyclo[3.1.0]hexane-2,4-dione hydrochloride] is less than 500 nM; for `Cc1cc(Cl)cc(-c2ncnn3cc(Cn4c(=O)ccn(C5CC5)c4=O)cc23)c1C[C@@H]1CNCCO1` (single isomer, unassigned) [Example 107, hydrochloride] it is less than 500 nM; for `CC1(C)C2C(=O)N(Cc3cc4c(-c5cc(C(F)(F)F)cc6ccn(CC7(F)CCNCC7)c56)ncnn4c3)C(=O)C21` (stereo not drawn) [Example 22, 3-((4-(1-((4-fluoropiperidin-4-yl)methyl)-5-(trifluoromethyl)-1H-indol-7-yl)pyrrolo[2,1-f][1,2,4]triazin-6-yl)methyl)-6,6-dimethyl-3-azabicyclo[3.1.0]hexane-2,4-dione hydrochloride] it is less than 500 nM.
The result for `Cc1cc(Cl)cc(-c2ncnn3cc(CN4C(=O)C5C(C4=O)C5(C)C)cc23)c1OCC1CCNCC1` (stereo not drawn) [Example 48, 3-((4-(5-chloro-3-methyl-2-(piperidin-4-ylmethoxy)phenyl)pyrrolo[2,1-f][1,2,4]triazin-6-yl)methyl)-6,6-dimethyl-3-azabicyclo[3.1.0]hexane-2,4-dione hydrochloride] reads less than 500 nM.
In the case of `CC1(C)C2C(=O)N(Cc3cc4c(-c5cc(Cl)cc6c5N(CC5(F)CCNCC5)CCC6)ncnn4c3)C(=O)C21` (stereo not drawn) [Example 63, 3-((4-(6-chloro-1-((4-fluoropiperidin-4-yl)methyl)-1,2,3,4-tetrahydroquinolin-8-yl)pyrrolo[2,1-f][1,2,4]triazin-6-yl)methyl)-6,6-dimethyl-3-azabicyclo[3.1.0]hexane-2,4-dione hydrochloride], the IC50 is less than 500 nM.
The result for `Cc1cc(Cl)cc(-c2ncnn3cc(Cn4c(=O)ccn(C)c4=O)cc23)c1CC1CN[C@@H](C)CO1` (single isomer, unassigned) [Example 110, hydrochloride] reads less than 500 nM.
The figure for `CC1(C)C2C(=O)N(Cc3cc4c(-c5cc(Cl)cc6ccn(CC7(C#N)CCNCC7)c56)ncnn4c3)C(=O)C21` (stereo not drawn) [Example 25, 4-((5-chloro-7-(6-((6,6-dimethyl-2,4-dioxo-3-azabicyclo[3.1.0]hexan-3-yl)methyl)pyrrolo[2,1-f][1,2,4]triazin-4-yl)-1H-indol-1-yl)methyl)piperidine-4-carbonitrile 2,2,2-trifluoroacetate] is less than 500 nM; for `CC1(C)C2C(=O)N(Cc3cc4c(-c5cc(Cl)cc6cnn(C[C@@H]7CNCCO7)c56)ncnn4c3)C(=O)C21` (stereo partly drawn) [Example 44, 3-((4-(5-chloro-1-(((S)-morpholin-2-yl)methyl)-1H-indazol-7-yl)pyrrolo[2,1-f][1,2,4]triazin-6-yl)methyl)-6,6-dimethyl-3-azabicyclo[3.1.0]hexane-2,4-dione 2,2,2-trifluoroacetate] it is less than 500 nM; for `CC1(C)C2C(=O)N(Cc3cc4c(-c5cc(Cl)cc6c5N(C5CCNC5)CCC6)ncnn4c3)C(=O)C21` (single isomer, unassigned) [Example 67, 3-((4-(6-chloro-1-(pyrrolidin-3-yl)-1,2,3,4-tetrahydroquinolin-8-yl)pyrrolo[2,1-f][1,2,4]triazin-6-yl)methyl)-6,6-dimethyl-3-azabicyclo[3.1.0]hexane-2,4-dione hydrochloride] it is less than 500 nM.
`CC1(C)C2C(=O)N(Cc3cc4c(-c5cc(Cl)cc6c5N(C5CCNC5)CCC6)ncnn4c3)C(=O)C21` (racemic) [Example 51, 3-((4-(6-chloro-1-(pyrrolidin-3-yl)-1,2,3,4-tetrahydroquinolin-8-yl)pyrrolo[2,1-f][1,2,4]triazin-6-yl)methyl)-6,6-dimethyl-3-azabicyclo[3.1.0]hexane-2,4-dione hydrochloride]: the IC50 was less than 500 nM.
As to `Cc1cc(Cl)cc(-c2ncnn3cc(Cn4c(=O)ccn(CC(F)(F)F)c4=O)cc23)c1C[C@@H]1CNCCO1` (single isomer, unassigned) [Example 83, hydrochloride], the IC50 is less than 500 nM.
Turning to `Cc1cc(Cl)cc(-c2ncnn3cc(Cn4c(=O)c(C)cn(C)c4=O)cc23)c1CC1CNC[C@H](C)O1` (single isomer, unassigned) [Example 115, hydrochloride], the IC50 is less than 500 nM.
`Cc1cc(Cl)cc(-c2ncnn3cc(Cn4c(=O)ccn(CCF)c4=O)cc23)c1CC1CNC[C@H](C)O1` (stereo partly drawn) [Example 101, 3-((4-(5-chloro-3-methyl-2-(((6S)-6-methylmorpholin-2-yl)methyl)phenyl)pyrrolo[2,1-f][1,2,4]triazin-6-yl)methyl)-1-(2-fluoroethyl)pyrimidine-2,4(1H,3H)-dione hydrochloride] registered an IC50 of less than 500 nM.
In turn, `C[C@@H]1CN(C2CCNC2)c2c(cc(Cl)cc2-c2ncnn3cc(CN4C(=O)C5C(C4=O)C5(C)C)cc23)O1` (stereo partly drawn) [Example 93, 3-((4-((2R)-7-chloro-2-methyl-4-(pyrrolidin-3-yl)-3,4-dihydro-2H-benzo[b][1,4]oxazin-5-yl)pyrrolo[2,1-f][1,2,4]triazin-6-yl)methyl)-6,6-dimethyl-3-azabicyclo[3.1.0]hexane-2,4-dione hydrochloride] registered a half-maximal inhibitory concentration (IC50) of less than 500 nM.
As to `Cn1ccc(=O)n(Cc2cc3c(-c4cc(Cl)cc(Cl)c4CC4CNCCO4)ncnn3c2)c1=O` (stereo not drawn) [Example 118, 3-((4-(3,5-dichloro-2-(morpholin-2-ylmethyl)phenyl)pyrrolo[2,1-f][1,2,4]triazin-6-yl)methyl)-1-methylpyrimidine-2,4(1H,3H)-dione hydrochloride], the 50% inhibitory concentration (IC50) is less than 500 nM.
The figure for `Cc1cc(Cl)cc(-c2ncnn3cc(CN4C(=O)C5C(C4=O)C5(C)C)cc23)c1CN1CCNC[C@@H]1C` (stereo partly drawn) [Example 6, 3-((4-(5-chloro-3-methyl-2-(((S)-2-methylpiperazin-1-yl)methyl)phenyl)pyrrolo[2,1-f][1,2,4]triazin-6-yl)methyl)-6,6-dimethyl-3-azabicyclo[3.1.0]hexane-2,4-dione hydrochloride] is less than 500 nM.
